Data as given in paper PMC3000536 (Tetrahedron letters, 2011).
pIC50, pKi: −log10 of the molar value. Entries after “also recorded” stand apart in the source; their conditions may differ.

Key:
[1] = target: Snail β-Mannosidase; assay: Glycosidase inhibition, snail β-mannosidase; format: biochemical; conditions: read-out: IC50 β-Mannosidase Snail
[2] = tested on: ER glucosidases; conditions: cited from earlier work
[3] = target: Almond β-Glucosidase; assay: Glycosidase inhibition, almond β-glucosidase; format: biochemical; conditions: read-out: IC50 β-Glucosidase Almond
[4] = target: T1, Rabbit muscle Glycogen phosphorylase (Oryctolagus cuniculus, UniProt P00489); assay: Glycogen phosphorylase inhibition, rabbit muscle; format: biochemical
T1 sequence (P00489 1-843): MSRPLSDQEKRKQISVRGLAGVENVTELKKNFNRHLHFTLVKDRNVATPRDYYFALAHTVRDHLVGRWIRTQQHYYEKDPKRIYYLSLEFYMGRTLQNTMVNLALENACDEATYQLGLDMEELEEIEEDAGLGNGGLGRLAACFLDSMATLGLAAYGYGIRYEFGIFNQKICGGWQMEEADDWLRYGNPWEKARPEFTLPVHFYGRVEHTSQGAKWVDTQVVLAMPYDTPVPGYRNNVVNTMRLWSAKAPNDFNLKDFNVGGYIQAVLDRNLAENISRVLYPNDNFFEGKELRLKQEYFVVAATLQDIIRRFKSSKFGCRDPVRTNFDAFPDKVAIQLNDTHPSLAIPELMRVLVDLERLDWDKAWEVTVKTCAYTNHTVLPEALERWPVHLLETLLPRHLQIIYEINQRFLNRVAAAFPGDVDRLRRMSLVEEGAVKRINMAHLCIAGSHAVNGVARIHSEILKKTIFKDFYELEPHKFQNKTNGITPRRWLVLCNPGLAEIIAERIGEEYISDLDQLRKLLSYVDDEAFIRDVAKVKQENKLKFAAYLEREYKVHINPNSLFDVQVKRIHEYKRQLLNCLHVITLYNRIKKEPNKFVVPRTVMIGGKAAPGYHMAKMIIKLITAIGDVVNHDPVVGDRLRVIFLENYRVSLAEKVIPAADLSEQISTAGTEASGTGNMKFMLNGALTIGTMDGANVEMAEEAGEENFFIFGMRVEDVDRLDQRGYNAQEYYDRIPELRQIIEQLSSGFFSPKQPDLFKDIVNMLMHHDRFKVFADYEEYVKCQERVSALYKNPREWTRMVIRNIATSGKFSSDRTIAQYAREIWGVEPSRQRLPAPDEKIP

[5] = target: Rice α-Glucosidase (Oryza sativa subsp. japonica, UniProt Q653V7); assay: Glycosidase inhibition, rice α-glucosidase; format: biochemical
[6] = target: T2, Jack beans α-Mannosidase (Canavalia ensiformis, UniProt C0HJB3); assay: Glycosidase inhibition, jack beans α-mannosidase; format: biochemical
T2 sequence (C0HJB3 1-981): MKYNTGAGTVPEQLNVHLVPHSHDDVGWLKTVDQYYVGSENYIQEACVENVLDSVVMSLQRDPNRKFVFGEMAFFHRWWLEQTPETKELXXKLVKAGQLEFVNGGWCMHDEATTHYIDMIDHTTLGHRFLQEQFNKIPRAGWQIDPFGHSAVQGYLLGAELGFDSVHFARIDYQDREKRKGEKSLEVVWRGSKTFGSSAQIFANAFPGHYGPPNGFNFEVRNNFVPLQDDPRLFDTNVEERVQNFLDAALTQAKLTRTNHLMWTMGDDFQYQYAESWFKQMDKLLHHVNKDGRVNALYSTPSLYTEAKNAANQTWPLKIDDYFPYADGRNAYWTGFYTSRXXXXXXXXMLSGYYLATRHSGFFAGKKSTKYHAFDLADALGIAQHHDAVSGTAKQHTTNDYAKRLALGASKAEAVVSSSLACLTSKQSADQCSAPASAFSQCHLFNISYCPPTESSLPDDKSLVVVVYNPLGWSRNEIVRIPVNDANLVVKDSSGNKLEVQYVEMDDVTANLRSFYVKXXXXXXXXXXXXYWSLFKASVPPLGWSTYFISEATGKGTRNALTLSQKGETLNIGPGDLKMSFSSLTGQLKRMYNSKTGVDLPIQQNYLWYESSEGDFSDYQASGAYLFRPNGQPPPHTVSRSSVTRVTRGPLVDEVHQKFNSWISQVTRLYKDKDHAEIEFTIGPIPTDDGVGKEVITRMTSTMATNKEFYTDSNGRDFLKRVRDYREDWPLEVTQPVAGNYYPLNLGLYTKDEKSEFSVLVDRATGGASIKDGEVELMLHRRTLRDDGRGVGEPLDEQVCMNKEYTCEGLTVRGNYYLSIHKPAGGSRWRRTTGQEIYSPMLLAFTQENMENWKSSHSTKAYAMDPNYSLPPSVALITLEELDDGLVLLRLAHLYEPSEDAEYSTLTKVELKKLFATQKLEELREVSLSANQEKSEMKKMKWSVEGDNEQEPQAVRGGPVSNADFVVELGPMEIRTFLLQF

[7] = target: T3, Rat intestinal lactase (Rattus norvegicus, UniProt Q02401); assay: Glycosidase inhibition, rat intestinal lactase; format: biochemical
T3 sequence (Q02401 868-1928): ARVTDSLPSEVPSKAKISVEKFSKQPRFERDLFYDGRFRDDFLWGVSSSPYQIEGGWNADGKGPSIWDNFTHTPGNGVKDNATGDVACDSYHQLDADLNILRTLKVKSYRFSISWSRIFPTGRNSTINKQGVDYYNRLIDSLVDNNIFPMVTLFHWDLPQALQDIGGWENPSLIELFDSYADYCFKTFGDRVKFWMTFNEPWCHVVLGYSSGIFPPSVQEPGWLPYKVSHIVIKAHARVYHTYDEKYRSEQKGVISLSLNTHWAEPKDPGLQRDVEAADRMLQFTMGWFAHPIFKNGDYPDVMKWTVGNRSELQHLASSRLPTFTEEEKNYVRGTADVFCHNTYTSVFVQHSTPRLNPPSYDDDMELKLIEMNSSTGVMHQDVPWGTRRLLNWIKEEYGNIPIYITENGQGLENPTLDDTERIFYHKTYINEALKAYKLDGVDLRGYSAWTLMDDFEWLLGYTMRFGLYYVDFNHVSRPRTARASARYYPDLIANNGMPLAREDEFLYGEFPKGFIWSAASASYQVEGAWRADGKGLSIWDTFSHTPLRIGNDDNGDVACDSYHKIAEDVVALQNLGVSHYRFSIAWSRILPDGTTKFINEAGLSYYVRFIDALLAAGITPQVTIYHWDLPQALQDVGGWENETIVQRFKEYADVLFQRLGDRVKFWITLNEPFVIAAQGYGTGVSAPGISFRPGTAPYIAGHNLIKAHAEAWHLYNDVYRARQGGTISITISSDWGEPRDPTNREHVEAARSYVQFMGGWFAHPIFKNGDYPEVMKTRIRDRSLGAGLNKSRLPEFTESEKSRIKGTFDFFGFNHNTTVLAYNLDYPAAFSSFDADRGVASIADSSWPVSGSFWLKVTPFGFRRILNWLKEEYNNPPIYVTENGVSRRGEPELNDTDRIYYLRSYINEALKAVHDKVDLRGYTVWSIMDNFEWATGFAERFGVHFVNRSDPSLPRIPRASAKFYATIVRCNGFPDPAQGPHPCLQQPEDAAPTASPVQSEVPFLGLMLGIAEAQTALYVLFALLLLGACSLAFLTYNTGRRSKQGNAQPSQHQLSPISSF

[8] = target: Rat intestinal maltase; assay: Glycosidase inhibition, rat intestinal maltase; format: biochemical; conditions: read-out: IC50 α-Glucosidase Rat intestinal maltase
[9] = target: Rat intestinal sucrase (Rattus norvegicus, UniProt P23739); assay: Glycosidase inhibition and kinetic analysis, rat intestinal sucrase; conditions: for Mode of inhibition of rat intestinal sucrase: kinetic analysis
[10] = target: Bovine liver β-Galactosidase; assay: Glycosidase inhibition, bovine liver β-galactosidase; format: biochemical; conditions: read-out: IC50 β-Galactosidase Bovine liver
[11] = target: T4, Rat intestinal cellobiase (Rattus norvegicus, UniProt Q02401); assay: Glycosidase inhibition, rat intestinal cellobiase; format: biochemical
T4 sequence (Q02401 868-1928): T3 sequence (Q02401 868-1928)

[12] = target: T5, Human lysosome α-Galactosidase (Homo sapiens, UniProt P06280); assay: Glycosidase inhibition, human lysosome α-galactosidase; format: biochemical
T5 sequence (P06280 32-429): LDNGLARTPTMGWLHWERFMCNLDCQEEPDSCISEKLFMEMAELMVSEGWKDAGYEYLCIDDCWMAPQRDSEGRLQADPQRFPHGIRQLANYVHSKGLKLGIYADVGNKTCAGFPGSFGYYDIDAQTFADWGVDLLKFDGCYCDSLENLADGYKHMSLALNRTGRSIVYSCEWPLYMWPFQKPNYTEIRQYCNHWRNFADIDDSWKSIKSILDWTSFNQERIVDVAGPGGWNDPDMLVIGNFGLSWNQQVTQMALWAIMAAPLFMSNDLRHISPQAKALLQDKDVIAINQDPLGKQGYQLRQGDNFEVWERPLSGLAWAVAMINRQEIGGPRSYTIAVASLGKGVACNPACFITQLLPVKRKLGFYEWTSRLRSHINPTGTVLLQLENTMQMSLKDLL

[13] = tested on: F508del-CFTR; conditions: ref viii; cited from earlier work
[14] = target: T6, Bovine epididymis α-L-Fucosidase (Bos taurus, UniProt Q2KIM0); assay: Glycosidase inhibition, bovine epididymis α-L-fucosidase; format: biochemical
T6 sequence (Q2KIM0 23-468): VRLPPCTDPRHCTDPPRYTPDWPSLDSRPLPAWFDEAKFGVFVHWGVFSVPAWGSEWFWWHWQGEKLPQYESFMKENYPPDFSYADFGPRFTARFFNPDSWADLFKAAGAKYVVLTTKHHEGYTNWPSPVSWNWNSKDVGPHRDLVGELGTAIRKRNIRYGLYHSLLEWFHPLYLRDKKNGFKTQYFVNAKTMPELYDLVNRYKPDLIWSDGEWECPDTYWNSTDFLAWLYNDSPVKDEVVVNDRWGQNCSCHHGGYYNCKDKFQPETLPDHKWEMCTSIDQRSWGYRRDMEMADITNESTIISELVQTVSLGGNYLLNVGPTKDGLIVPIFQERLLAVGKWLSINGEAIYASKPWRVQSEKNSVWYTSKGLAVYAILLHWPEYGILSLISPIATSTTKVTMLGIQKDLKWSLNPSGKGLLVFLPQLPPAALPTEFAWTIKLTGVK

[15] = target: Coffee beans α-Galactosidase (Coffea arabica, UniProt Q42656); assay: Glycosidase inhibition, coffee beans α-galactosidase; format: biochemical
[16] = target: Rat intestinal isomaltase (Rattus norvegicus, UniProt P23739); assay: Glycosidase inhibition, rat intestinal isomaltase; format: biochemical
[17] = target: F508del-CFTR (Homo sapiens, UniProt P13569, DEL508-508); assay: CFTR function in CF-KM4 cells by single-cell fluorescence imaging; format: cell-based

Sequence of Coffee beans α-Galactosidase (Q42656 16-378): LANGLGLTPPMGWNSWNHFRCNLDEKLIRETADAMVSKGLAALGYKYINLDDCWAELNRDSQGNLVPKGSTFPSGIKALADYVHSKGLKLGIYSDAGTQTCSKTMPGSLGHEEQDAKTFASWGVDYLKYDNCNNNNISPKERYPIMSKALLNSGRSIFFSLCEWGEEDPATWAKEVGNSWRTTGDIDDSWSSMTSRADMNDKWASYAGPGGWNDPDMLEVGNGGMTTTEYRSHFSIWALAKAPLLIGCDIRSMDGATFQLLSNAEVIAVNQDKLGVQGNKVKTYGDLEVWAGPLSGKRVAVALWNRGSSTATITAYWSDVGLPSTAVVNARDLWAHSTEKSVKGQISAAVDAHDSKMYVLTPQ
Sequence of Rice α-Glucosidase (Q653V7 34-885): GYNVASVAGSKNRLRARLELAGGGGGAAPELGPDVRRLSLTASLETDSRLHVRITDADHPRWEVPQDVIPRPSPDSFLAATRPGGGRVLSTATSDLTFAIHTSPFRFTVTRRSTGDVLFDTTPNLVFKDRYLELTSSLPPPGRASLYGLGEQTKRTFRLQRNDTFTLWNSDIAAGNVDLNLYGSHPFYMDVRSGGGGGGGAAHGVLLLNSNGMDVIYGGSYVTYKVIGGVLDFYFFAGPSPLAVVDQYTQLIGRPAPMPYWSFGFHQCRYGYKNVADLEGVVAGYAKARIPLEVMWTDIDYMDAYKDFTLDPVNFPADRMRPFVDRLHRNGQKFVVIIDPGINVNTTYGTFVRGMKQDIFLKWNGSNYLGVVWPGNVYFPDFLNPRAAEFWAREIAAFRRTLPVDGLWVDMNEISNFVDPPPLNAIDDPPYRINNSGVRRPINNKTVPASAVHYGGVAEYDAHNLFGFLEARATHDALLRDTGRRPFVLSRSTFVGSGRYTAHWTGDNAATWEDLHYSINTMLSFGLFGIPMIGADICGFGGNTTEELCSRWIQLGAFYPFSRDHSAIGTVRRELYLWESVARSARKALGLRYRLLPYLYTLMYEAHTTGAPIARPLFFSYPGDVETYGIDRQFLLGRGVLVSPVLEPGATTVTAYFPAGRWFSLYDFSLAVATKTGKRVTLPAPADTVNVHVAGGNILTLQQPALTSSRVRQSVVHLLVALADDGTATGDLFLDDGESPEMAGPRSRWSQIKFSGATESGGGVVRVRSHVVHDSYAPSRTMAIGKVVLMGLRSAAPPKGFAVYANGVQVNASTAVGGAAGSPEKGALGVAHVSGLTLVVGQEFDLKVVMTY
Sequence of Rat intestinal isomaltase (P23739 whole entry): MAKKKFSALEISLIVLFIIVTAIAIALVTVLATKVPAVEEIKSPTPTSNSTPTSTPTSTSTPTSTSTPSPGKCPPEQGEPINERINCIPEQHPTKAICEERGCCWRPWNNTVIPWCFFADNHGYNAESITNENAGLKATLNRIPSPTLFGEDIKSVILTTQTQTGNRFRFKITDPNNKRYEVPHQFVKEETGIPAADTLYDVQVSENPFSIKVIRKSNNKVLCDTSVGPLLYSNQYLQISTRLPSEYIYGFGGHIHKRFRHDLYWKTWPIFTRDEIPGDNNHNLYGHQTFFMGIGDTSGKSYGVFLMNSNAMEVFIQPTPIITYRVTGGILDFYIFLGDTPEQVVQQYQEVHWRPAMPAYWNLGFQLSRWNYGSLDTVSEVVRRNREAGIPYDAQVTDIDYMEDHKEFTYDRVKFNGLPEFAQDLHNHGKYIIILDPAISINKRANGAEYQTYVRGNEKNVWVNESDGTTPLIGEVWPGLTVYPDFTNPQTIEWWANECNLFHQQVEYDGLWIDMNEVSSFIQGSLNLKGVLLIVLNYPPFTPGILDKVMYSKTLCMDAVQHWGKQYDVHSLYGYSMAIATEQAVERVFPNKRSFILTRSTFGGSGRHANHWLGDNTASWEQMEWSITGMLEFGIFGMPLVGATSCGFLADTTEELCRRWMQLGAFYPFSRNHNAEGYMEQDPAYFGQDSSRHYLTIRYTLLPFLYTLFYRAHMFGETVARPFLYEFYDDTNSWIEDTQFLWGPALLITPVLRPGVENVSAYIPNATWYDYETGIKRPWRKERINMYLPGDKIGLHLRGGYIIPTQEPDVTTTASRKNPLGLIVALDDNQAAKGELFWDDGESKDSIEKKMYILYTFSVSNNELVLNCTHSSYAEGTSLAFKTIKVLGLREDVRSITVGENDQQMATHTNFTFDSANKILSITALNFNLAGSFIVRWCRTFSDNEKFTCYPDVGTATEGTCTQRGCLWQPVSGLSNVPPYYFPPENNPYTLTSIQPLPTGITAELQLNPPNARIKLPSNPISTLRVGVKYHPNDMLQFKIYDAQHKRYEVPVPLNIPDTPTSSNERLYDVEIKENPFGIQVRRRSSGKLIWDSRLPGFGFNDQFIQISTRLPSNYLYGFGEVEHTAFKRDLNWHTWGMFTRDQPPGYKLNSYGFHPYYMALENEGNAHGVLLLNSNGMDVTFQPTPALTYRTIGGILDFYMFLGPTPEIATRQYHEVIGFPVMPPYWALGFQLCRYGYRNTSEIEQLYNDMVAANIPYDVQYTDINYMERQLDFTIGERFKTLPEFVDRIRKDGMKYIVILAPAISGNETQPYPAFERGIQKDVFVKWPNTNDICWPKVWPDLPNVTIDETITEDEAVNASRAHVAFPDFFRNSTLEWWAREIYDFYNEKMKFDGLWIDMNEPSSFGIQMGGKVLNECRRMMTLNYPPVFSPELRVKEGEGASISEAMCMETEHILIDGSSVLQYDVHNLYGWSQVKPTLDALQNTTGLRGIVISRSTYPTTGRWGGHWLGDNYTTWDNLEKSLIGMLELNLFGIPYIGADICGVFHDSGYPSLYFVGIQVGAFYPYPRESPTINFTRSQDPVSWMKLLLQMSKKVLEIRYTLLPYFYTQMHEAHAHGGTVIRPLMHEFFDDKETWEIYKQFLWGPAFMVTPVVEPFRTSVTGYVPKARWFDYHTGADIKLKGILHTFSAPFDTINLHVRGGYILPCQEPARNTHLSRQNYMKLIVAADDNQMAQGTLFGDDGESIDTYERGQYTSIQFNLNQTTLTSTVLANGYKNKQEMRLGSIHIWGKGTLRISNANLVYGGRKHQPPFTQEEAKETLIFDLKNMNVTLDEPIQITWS
Sequence of Rat intestinal sucrase (P23739 whole entry): as above

Compound	pIC50 [1]	pIC50 [3]	pIC50 [4]	Inhibition of glycogen phosphorylase (in words) [4]	pIC50 [5]	pIC50 [6]	pIC50 [7]	pIC50 [8]	pIC50 [9]	pIC50 [10]	pIC50 [11]	pIC50 [12]	pIC50 [14]	pIC50 [15]	pIC50 [16]	pKi [9]	Corrector effect on CFTR function [17]	further results
OC[C@]1(O)CNC[C@@H]1O [isoLAB 2L]	< 3.00	< 3.00	< 3.00	no significant inhibition	< 3.00	< 3.00	< 3.00	< 3.00	< 3.00	< 3.00	< 3.00	< 3.00	< 3.00	< 3.00	< 3.00	–	–	Inhibition of ER glucosidases [2]: neither of which showed any inhibition; Rescue of the defective F508del-CFTR function [13]: significant rescue; also recorded: partially rescues
OC[C@@H]1NC[C@H](O)[C@H]1O [LAB 3L]	< 3.00	< 3.00	–	–	–	< 3.00	–	–	–	< 3.00	< 3.00	–	< 3.00	< 3.00	–	–	–	–
OC[C@H]1NC[C@@H](O)[C@@H]1O [DAB 3D]	< 3.00	3.60	–	–	–	–	–	–	–	< 3.00	3.12	–	< 3.00	< 3.00	–	–	–	–
C[C@]1(CO)NC[C@@H](O)[C@@H]1O [4-C-Me-DAB 1D, 1,4-dideoxy-1,4-imino-4-C-methyl-D-arabinitol]	< 3.00	< 3.00	< 3.00	no significant inhibition	5.15	< 3.00	< 3.00	6.13	6.39	< 3.00	< 3.00	< 3.00	< 3.00	< 3.00	5.47	6.05	Neither of the 4-C-methyl pyrrolidines 1D and 1L had any corrector effect	Mode of inhibition of rat intestinal sucrase ([9]; listed as 1D): competitive inhibitor; Mode of inhibition of rat intestinal sucrase ([9]; listed as 4-C-Me-DAB): competitive
C[C@@]1(CO)NC[C@H](O)[C@H]1O [4-C-Me-LAB 1L]	< 3.00	< 3.00	< 3.00	no significant inhibition	5.24	< 3.00	< 3.00	5.62	–	< 3.00	< 3.00	< 3.00	< 3.00	< 3.00	5.29	6.02	Neither of the 4-C-methyl pyrrolidines 1D and 1L had any corrector effect	Mode of inhibition of rat intestinal sucrase ([9]; listed as 1L): non-competitive inhibitor; Mode of inhibition of rat intestinal sucrase ([9]; listed as 4-C-Me-LAB): non-competitive
OC[C@@]1(O)CNC[C@H]1O [isoDAB 2D]	< 3.00	< 3.00	< 3.00	no significant inhibition	4.39	< 3.00	< 3.00	4.62	4.82	< 3.00	< 3.00	< 3.00	< 3.00	< 3.00	4.70	–	–	–
